Measured values reported in article PMC11476419, “Analysis of Punicalin and Punicalagin Interaction with PDIA3 and PDIA1” (International Journal of Molecular Sciences, 2024).
pIC50: −log10 of the molar value.

Assays:
PDIA1 [1] = target: T1, PDIA1 (Homo sapiens, UniProt P07237); assay: Insulin turbidity assay, disulfide reductase activity; assay type: biochemical; settings: insulin substrate, PDIA1 800 nM, reducing conditions
T1 construct: The mature human PDIA1 with an N-terminal His6x-tag was expressed and purified; His6 (N); made in house
T1 sequence (P07237 18-508): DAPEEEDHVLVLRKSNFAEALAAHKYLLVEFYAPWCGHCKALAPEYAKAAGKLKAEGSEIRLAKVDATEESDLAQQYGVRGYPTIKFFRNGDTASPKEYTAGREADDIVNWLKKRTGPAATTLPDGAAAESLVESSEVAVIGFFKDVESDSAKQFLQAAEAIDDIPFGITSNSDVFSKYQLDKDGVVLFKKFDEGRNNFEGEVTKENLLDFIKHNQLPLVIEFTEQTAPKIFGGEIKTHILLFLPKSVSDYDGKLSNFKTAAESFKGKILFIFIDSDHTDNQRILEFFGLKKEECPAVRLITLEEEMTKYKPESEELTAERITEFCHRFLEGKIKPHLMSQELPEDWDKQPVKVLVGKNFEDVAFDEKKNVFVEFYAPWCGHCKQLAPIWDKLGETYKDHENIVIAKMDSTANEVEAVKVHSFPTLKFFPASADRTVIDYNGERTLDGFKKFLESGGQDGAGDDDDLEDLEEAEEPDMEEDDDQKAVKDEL
Protocol: (§1) To further evaluate the inhibitory effect of punicalin and punicalagin on the enzymatic activity of the two proteins, we performed a different assay using insulin, a physiologically more appropriate substrate. The results obtained are reported in Figure 4 and show again a lesser inhibitory effect of punicalin compared to punicalagin, as observed with the glutathione-based assay.
PDI disulfide reductase activity was assayed by measuring the reduction of insulin catalyzed by PDIs with DTT. A 50 μM stock solution of each PDI was reduced using TCEP (5 mM final concentration) for 90 min at room temperature. […] After incubation, an equal volume of the 2× reaction mixture (consisting of DTT 50 μM and human insulin 0.32 mM) was added. Protein activity was evaluated by monitoring the increase in turbidity of the solutions at 600 nm.
(§2) In both assays, the inhibition constants were extrapolated by GraphPad Prism 8.0 software (GraphPad Software, San Diego, CA, USA), plotting the obtained data as logarithm dose–response curves.

PDIA3 [2] = target: T2, PDIA3 (Homo sapiens, UniProt P30101); assay: as above; assay type: biochemical; settings: insulin substrate, PDIA3 1600 nM, reducing conditions
T2 construct: The mature recombinant form (devoid of the N-terminal presence) of the human PDIA3 protein was expressed and purified; made in house
T2 sequence (P30101 25-505): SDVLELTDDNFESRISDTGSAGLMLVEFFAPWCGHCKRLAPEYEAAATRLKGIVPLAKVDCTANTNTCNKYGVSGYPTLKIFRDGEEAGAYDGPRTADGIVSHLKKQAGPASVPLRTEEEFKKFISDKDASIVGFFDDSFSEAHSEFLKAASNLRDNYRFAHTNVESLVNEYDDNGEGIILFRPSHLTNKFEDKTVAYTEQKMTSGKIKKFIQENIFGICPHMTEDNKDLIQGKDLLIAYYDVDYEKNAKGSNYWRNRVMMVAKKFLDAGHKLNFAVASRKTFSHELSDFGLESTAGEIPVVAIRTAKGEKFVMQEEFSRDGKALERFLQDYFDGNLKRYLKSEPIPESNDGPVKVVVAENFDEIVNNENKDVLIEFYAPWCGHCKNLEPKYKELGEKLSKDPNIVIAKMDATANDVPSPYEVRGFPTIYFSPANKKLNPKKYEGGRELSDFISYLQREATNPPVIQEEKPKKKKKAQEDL
Protocol: as §1
PDI disulfide reductase activity was assayed by measuring the reduction of insulin catalyzed by PDIs with DTT. A 50 μM stock solution of each PDI was reduced using TCEP (5 mM final concentration) for 90 min at room temperature. Aliquots of the stock solution were diluted in the incubation mixture (PDIA1 1.6 µM and PDIA3 3.2 µM) containing sodium phosphate buffer (100 mM sodium phosphate, 2 mM EDTA, pH 7.0) added with punicalin/punicalagin (concentration ranging from 0 to 50 µM) and incubated at 37 °C for 1 h. After incubation, an equal volume of the 2× reaction mixture (consisting of DTT 50 μM and human insulin 0.32 mM) was added. Protein activity was evaluated by monitoring the increase in turbidity of the solutions at 600 nm.
as §2

PDIA1 [3] = target: T1, PDIA1; assay: Differential scanning fluorimetry (protein thermal shift); assay type: binding; settings: PDIA1, compound 20 µM
Protocol: (§3) The effect of punicalin and punicalagin on the stability of both proteins was evaluated by differential scanning fluorimetry (DSF). Initially, PDIA1 and PDIA3 were incubated at 25 °C for 20 min with both substances at 5 µM and 20 µM concentrations. […] The reading was optimized at intervals of 0.2 °C every 5 s. Once the fluorescence profile was obtained, the data were analyzed with the GraphPad prism program, by either fitting data with a Boltzmann equation or calculating the first derivative. In DSF analyses, a gradual increase in fluorescence is observed, due to a conformational change in the protein, which reaches a maximum value and then decreases because of protein precipitation.
(§4) To evaluate Tm, we focused the attention on the main transition, and thus we fitted, with a Boltzmann equation, the data in the range of 25–55 °C for PDIA3 and in the range of 45–70 °C for PDIA1. Again, the two substances show a destabilizing effect, which was more evident for PDIA3 than for PDIA1. In fact, punicalagin and punicalin at a 20 µM concentration cause a shift of Tm of at least 6 °C in the case of PDIA3, while this is approximately 3 °C for PDIA1 (Figure 7).
(§5) Protein stability in the absence and presence of punicalagin/punicalin was tested by means of the fluorescence-based thermal stability assay or differential scanning fluorimetry (DSF) developed by Pantoliano and coworkers. DSF records the fluorescence emission signal from the binding of a dye (SYPRO orange) to the exposed hydrophobic patches upon protein unfolding. Fluorescence measurements were performed using a CFX96 Connect RT-PCR instrument (BioRad, Hercules, CA, USA). Aliquots of 18 μL of protein solution (2 μM), freshly diluted in Tris Buffered saline (50 mM TrisHCl, pH 8.0, 150 mM NaCl) containing 0.1 mM DTT, 0.2 mM EDTA, and 1: 1000 dilution of SYPRO Orange (50 mM stock solution in DMSO), were distributed in a 96-well plate. Sample wells were added with punicalagin or punicalin at a final concentration of 5 uM or 20 μM by adding 2 μL of a 10-fold concentrated freshly prepared stock solution. As control, the protein solution was added with 2 μL of the dilution buffer. A melting point analysis was recorded by increasing the temperature from 25 to 70 °C with an increment of 0.2 °C every 5 s and reading, at each temperature, the fluorescence in fluorescence resonance energy transfer mode (FRET). Each measure was the average of three sample well readings, and each DSF experiment was repeated at least three times. To calculate Tm values, DSF data from the melting curve were exported and fitted to a Boltzmann equation using GraphPad software. The effect of punicalagin and punicalin was evaluated comparing the Tm values in the presence and absence of each molecule.

PDIA3 [4] = target: T2, PDIA3; assay: as above; assay type: binding
Protocol: as §3, §4, §5

PDIA1 [5] = target: T1, PDIA1; set-up: method as in Paglia et al. [40]; settings: reduced PDIA1; ref Paglia et al. [40]; cited from earlier work
PDIA3 [6] = target: T2, PDIA3; set-up: method as in Paglia et al. [40]; settings: reduced PDIA3; ref Paglia et al. [40]; cited from earlier work
PDIA3 [7] = system: PDIA3; set-up: method as in PMID 37686085; settings: 30 µM, 24 h after treatment; ref [34]; cited from earlier work

SMILES: O=C1O[C@H]2[C@@H]3OC(=O)c4cc(O)c(O)c(O)c4-c4c(O)c(O)c5oc(=O)c6c(c(O)c(O)c7oc(=O)c4c5c76)-c4c(cc(O)c(O)c4O)C(=O)OC[C@H]3OC(O)[C@@H]2OC(=O)c2cc(O)c(O)c(O)c2-c2c1cc(O)c(O)c2O (mixture of isomers) [Punicalagin, punicalagin]
- pIC50 (PDIA1 [1]): 4.86
- pIC50 (PDIA3 [2]): 5.06
- shift towards lower temperature of second main transition (first-derivative graph) (PDIA1 [3]): about 5 °C
- shift of Tm (destabilizing, Boltzmann fit) (PDIA1 [3]; fit range 45–70 °C): approximately 3 °C
- left shift of first transition (first-derivative graph) (PDIA3 [4]; PDIA3, compound 20 µM): about 3 °C
- shift towards lower temperature of second transition (first-derivative graph) (PDIA3 [4]; PDIA3, compound 20 µM): more than 10 °C
- shift of Tm (destabilizing, Boltzmann fit) (PDIA3 [4]; PDIA3, compound 20 µM, fit range 25–55 °C): at least 6 °C
- Tm of PDIA3 after addition of compound (PDIA3 [4]; PDIA3 alone Tm 46 °C): below 40 °C
- Stern–Volmer constant (KSV) (PDIA1 [5]): 97.9 ± 2.1 M^−1 × 10^3
- Stern–Volmer constant (KSV) (PDIA3 [6]): 157.1 ± 1.9 M^−1 × 10^3
- formation of PDIA3 protein aggregates (PDIA3 [7]): induced the formation of protein aggregates
